# Assay: Inhibition of thrombin-induced human gel-filtered platelet aggregation
row,SMILES,IC50 [nM]
1,"O=C(N[C@@H](CNC(=O)C1CCCn2c(CCC3CCNCC3)nnc21)C(=O)O)OCc1ccccc1 (stereo partly specified) [2-Benzyloxycarbonylamino-3-{[3-(2-piperidin-4-yl-ethyl)-5,6,7,8-tetrahydro-[1,2,4]triazolo[4,3-a]pyridine-8-carbonyl]-amino}-propionic acid]",0.068
2,"O=C(N[C@@H](CNC(=O)C1CCCn2c(C=CC3CCNCC3)nnc21)C(=O)O)OCc1ccccc1 (stereo partly specified) [2-Benzyloxycarbonylamino-3-{[3-(2-piperidin-4-yl-vinyl)-5,6,7,8-tetrahydro-[1,2,4]triazolo[4,3-a]pyridine-8-carbonyl]-amino}-propionic acid]",0.041
3,"O=C(NC[C@H](NS(=O)(=O)Cc1ccccc1)C(=O)O)C1CCCn2c(/C=C/C3CCNCC3)nnc21 (stereo partly specified) [2-Phenylmethanesulfonylamino-3-{[3-(2-piperidin-4-yl-vinyl)-5,6,7,8-tetrahydro-[1,2,4]triazolo[4,3-a]pyridine-8-carbonyl]-amino}-propionic acid]",0.043
4,"O=C(O)C[C@H](NC(=O)C1CCCn2c(CCC3CCNCC3)nnc21)c1cccnc1 (stereo partly drawn) [(S)-3-{[3-(2-Piperidin-4-yl-ethyl)-5,6,7,8-tetrahydro-[1,2,4]triazolo[4,3-a]pyridine-8-carbonyl]-amino}-3-pyridin-3-yl-propionic acid]",0.016
5,"O=C(O)C[C@H](NC(=O)c1cccn2c(CCC3CCNCC3)nnc12)c1cccnc1 [(S)-3-{[3-(2-Piperidin-4-yl-ethyl)-[1,2,4]triazolo[4,3-a]pyridine-8-carbonyl]-amino}-3-pyridin-3-yl-propionic acid]",0.37
6,O=C(O)C[C@H](NC(=O)[C@@H]1CCCN(C(=O)CCC2CCNCC2)C1)c1cccnc1 [(S)-3-{[(R)-1-(3-Piperidin-4-yl-propionyl)-piperidine-3-carbonyl]-amino}-3-pyridin-3-yl-propionic acid],0.06
7,O=C(N[C@@H](CNC(=O)[C@@H]1CCCN(C(=O)CCC2CCNCC2)C1)C(=O)O)OCc1ccccc1 [RWJ-53419],0.027

# Other lines, results leading:
row,IC50 [nM],SMILES
1,2.7,"CC1(C(=O)NC[C@H](NC(=O)OCc2ccccc2)C(=O)O)CCCn2c(CCC3CCNCC3)nnc21 (stereo partly specified) [2-Benzyloxycarbonylamino-3-{[8-methyl-3-(2-piperidin-4-yl-ethyl)-5,6,7,8-tetrahydro-[1,2,4]triazolo[4,3-a]pyridine-8-carbonyl]-amino}-propionic acid]"
2,0.12,"O=C(Cc1cccnc1)N[C@@H](CNC(=O)C1CCCn2c(/C=C/C3CCNCC3)nnc21)C(=O)O (stereo partly specified) [3-{[3-(2-Piperidin-4-yl-vinyl)-5,6,7,8-tetrahydro-[1,2,4]triazolo[4,3-a]pyridine-8-carbonyl]-amino}-2-(2-pyridin-3-yl-acetylamino)-propionic acid]"
3,0.061,"O=C(O)C[C@H](NC(=O)C1CCCn2c(/C=C/C3CCNCC3)nnc21)c1cccnc1 (stereo partly drawn) [(S)-3-{[3-((E)-2-Piperidin-4-yl-vinyl)-5,6,7,8-tetrahydro-[1,2,4]triazolo[4,3-a]pyridine-8-carbonyl]-amino}-3-pyridin-3-yl-propionic acid]"
4,0.057,"O=C(O)C[C@H](NC(=O)C1CCCn2c(/C=C/C3CCNCC3)nnc21)c1cnc2ccccc2c1 (stereo partly drawn) [(S)-3-{[3-((E)-2-Piperidin-4-yl-vinyl)-5,6,7,8-tetrahydro-[1,2,4]triazolo[4,3-a]pyridine-8-carbonyl]-amino}-3-quinolin-3-yl-propionic acid]"
